# Measurements as given in patent publication US20200179310A1, “COMPOSITIONS COMPRISING SALBUTAMOL SULPHATE” (MEXICHEM AMANCO HOLDING S.A. DE C.V., priority 2013, published 2020).
# Experiment: Solubility of surfactants in liquid propellant (non-volatile residue of saturated supernatant)
# Type: physicochemical
# Conditions: for NVR result (quantity of dissolved surfactant in the propellant): equilibrated at 20° C., excess surfactant in 200 g liquid propellant
# Method: The solubility of various surfactants in R-134a and R-152a was investigated. The solubility was investigated by adding an excess of the surfactant (around 2 grams) to 200 g of the liquid propellant in a pressurised vessel. The vessel was equilibrated at 20° C. for a period of a few hours before decanting a weighed sample of the saturated supernatant liquid propellant through a filter into a clean vessel. The propellant was slowly removed by evaporation and the residue taken up in a small quantity of dichloromethane. The dichloromethane containing the dissolved residue was transferred to a weighed platinum crucible and heated (up to around 100° C.) to remove the solvent. The weighed, solvent-free residue represented the quantity of dissolved surfactant in the propellant.
substance,measurement,setting,value
Span 80,NVR result (quantity of dissolved surfactant in the propellant),Refrigerant 134a (R-134a),0.07%
same,Observation,"Refrigerant 152a (R-152a), 20° C.",Sunk to the bottom
same,NVR result (quantity of dissolved surfactant in the propellant),Refrigerant 152a (R-152a),0.22%
same,Solubility in R-152a in comparison with R134a,comparison of Table 1 values,significant increases in solubility
